Results: paper PMC9229919, “4-Aminoquinoline-Based Adamantanes as Potential Anticholinesterase Agents in Symptomatic Treatment of Alzheimer’s Disease” (Pharmaceutics, 2022)
Where two headings read alike, the source gives them in different places.

What was measured:
purified human BChE = biological target: T1, purified human BChE (Homo sapiens, UniProt P06276); assay: biochemical; format: biochemical
T1 construct: possibly also a gift of Dr Florian Nachon (the sentence is ambiguous)
Experimental: (§1) Acetylthiocholine (ATCh) and 5,5′-dithiobis(2-nitrobenzoic acid) (DTNB) were purchased from Sigma-Aldrich, St. Louis, MO, USA. ATCh was dissolved in water and DTNB in 0.1 M sodium phosphate buffer (pH 7.4). The 4-aminoquinilines were dissolved in DMSO and all further dilutions were made in water.
(§2) The sources of AChE and BChE were purified human BChE and recombinant human AChE that was kindly provided by Dr Florian Nachon (Département de Toxicologie, Armed Forces Biomedical Research Institute, Brétigny-sur-Orge, France). […] The enzymes were diluted in sodium phosphate buffer 0.1 M (pH 7.4) containing 0.1% BSA.
(§3) Enzyme activities were measured spectrophotometrically using a slightly modified Ellman method, as described earlier. […] At least three inhibitor concentrations for each substrate concentration were used in at least three experiments. The apparent inhibition constant (Ki,app) was calculated using the Hunter–Downs Equation and linear regression analysis:(1) Ki,app=vi·i/v0−vi=Ki+Ki/KS·s where the y-intercept determines the enzyme-inhibitor dissociation constant (Ki), while the x-intercept determines the enzyme-substrate dissociation constant, KS.
(§4) The Hunter–Downs Equation was used under the assumption that the substrate, due to relatively low concentrations used in experiments, would bind only to the catalytic site of the enzymes, while the inhibitors would bind to both CAS and/or PAs. This allowed the type of inhibition to be determined from Ki,app vs. substrate concentration ([S]) dependency on Hunter–Downs plot.
(§5) The final content of DMSO in the measurements was up to 0.2%. […] The measurements were performed at 25 °C on a Tecan Infinite M200Pro plate reader (Tecan Austria GmbH, Salzburg, Austria).

recombinant human AChE = biological target: T2, recombinant human AChE (Homo sapiens, UniProt P22303); assay: biochemical; format: biochemical
T2 construct: gift of Dr Florian Nachon (Armed Forces Biomedical Research Institute, Brétigny-sur-Orge, France)
T2 sequence (P22303 32-614): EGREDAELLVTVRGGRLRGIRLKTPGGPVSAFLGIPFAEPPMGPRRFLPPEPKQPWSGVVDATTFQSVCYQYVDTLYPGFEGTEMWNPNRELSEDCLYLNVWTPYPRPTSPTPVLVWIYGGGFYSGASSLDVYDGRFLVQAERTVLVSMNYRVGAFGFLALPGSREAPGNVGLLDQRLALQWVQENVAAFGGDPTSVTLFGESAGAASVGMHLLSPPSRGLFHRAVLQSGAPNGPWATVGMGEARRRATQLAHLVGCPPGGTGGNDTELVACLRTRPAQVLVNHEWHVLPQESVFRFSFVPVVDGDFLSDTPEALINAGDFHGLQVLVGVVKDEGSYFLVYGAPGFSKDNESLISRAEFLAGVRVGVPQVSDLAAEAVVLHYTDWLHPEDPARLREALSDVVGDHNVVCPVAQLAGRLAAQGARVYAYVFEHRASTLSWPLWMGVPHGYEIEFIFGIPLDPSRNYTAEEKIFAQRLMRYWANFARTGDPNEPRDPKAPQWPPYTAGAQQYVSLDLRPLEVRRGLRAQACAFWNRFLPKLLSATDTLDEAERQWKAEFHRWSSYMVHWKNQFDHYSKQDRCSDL
Experimental: as §1, §2, §3, §4, §5

[1] = Ferric reducing antioxidant power (FRAP) assay; details: mean ± standard error of three experiments;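 also: expressed as µM Fe2+ equivalents from an FeSO4·7H2O standard curve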
Experimental: . All the chemicals were purchased from Sigma-Aldrich (St. Louis, MO, USA), except for tripyridyltriazine (TPTZ) (Fluka, Buchs, Switzerland) and FeCl3 (Kemika, Zagreb, Croatia). The FRAP assay was assessed according to Benzie and Strain [53] with slight procedure adjustments for 96-well microplates. The method is based on the reduction of the ferric-tripyridyltriazine (Fe^3+-TPTZ) complex to ferrous tripyridyltriazine (Fe^2+-TPTZ) by the action of electron-donating compounds at a low pH. Briefly, the FRAP reagent was prepared by mixing acetate buffer (300 mM, pH 3.6), a solution of 10 mM TPTZ in 40 mM HCl, and 20 mM FeCl3 at 10:1:1 (v/v/v). Then, 240 μL of FRAP reagent and 10 μL of sample solution were added to a 96-well plate and incubated at 37 °C for 60 min. The absorbance was measured at 593 nm using a microplate reader (Infinite M200PRO, Tecan Austria GmbH, Salzburg, Austria) against a blank. The reducing capacity was determined for 10 and 100 µM compound concentrations. […]. All measurements were performed in three independent experiments. FRAP values, denominating the reduction of ferric-tripyridyltriazine (Fe^3+-TPTZ) to ferrous tripyridyltriazine (Fe^2+-TPTZ) by 4-aminoquinolines were calculated based on a standard curve obtained using […].

[2] = Reverse-phase thin-layer chromatographic lipophilicity (RF, RM0); format: physicochemical; details: for RM0: intercept of RM = RM0 + bC; for b: slope of RM = RM0 + bC
Experimental: Chromatographic determination of lipophilicity
Merck, Darmstadt, Germany). The mobile phase contained organic modifier (methanol, acetone or dioxane), water and hydrochloric acid.
Methanol was varied in the range […]
with an increment of 10%. […]
before chromatogram development. The solvent developing distance was 4.5 cm. Detection of […]
All experiments were performed at ambient temperature (22±2 °C). Retention parameters were calculated as previously described. […]

[3] = Acetone/Water/Hydrochloric acid (conc.)
[4] = Dioxane/Water/Hydrochloric acid (conc.)
[5] = Methanol/Water/Hydrochloric acid (conc.)

T1 sequence (P06276 29-602): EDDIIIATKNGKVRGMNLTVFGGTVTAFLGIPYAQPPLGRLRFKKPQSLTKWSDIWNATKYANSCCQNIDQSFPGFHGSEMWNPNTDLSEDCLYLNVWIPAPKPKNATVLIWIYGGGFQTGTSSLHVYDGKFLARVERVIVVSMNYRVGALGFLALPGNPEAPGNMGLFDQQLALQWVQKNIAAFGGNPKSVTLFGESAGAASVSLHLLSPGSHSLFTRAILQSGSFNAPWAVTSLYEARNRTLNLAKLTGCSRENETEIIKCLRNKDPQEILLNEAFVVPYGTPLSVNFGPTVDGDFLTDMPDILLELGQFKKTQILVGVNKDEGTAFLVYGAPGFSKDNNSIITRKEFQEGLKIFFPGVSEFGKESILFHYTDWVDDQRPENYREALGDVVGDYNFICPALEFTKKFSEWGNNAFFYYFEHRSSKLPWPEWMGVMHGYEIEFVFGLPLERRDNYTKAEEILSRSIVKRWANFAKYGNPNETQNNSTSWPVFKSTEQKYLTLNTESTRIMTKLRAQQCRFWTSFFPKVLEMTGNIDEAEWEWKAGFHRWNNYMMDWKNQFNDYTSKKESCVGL

## Clc1ccc2c(NCCCCCCCCNCC34CC5CC(CC(C5)C3)C4)ccnc2c1 [Compound 5]
Purified human BChE
  increase in BChE inhibition vs compounds 3 and 4: about 9 times
Purified human BChE; comparator ref [63]
  more potent BChE inhibitor than galantamine: 12 times
Purified human BChE; logarithm of Ki in µM, BChE, dependent variable of the QSAR model, read-out: Y Measured 2 log(ki)Bche, log (Ki/µM BChE) (converted)
  Ki: 0.0912 µM
Purified human BChE; ± standard error, 25 °C, ATCh substrate, read-out: Ki BChE
  Ki: 0.091 ± 0.007 µM
Recombinant human AChE
  less potent AChE inhibitor than donepezil and tacrine: 2 to 3 times
Recombinant human AChE; IS = Ki(BChE)/Ki(AChE), IS > 1 selective to AChE
  IS: 1.2
Recombinant human AChE; log (Ki/µM AChE), read-out: Y Measured 1 log(ki)Ache (converted)
  Ki: 0.0759 µM
Recombinant human AChE; n-octylene spacer vs unbranched compounds with shorter spacer
  increase in AChE inhibition potency: about 12 times
Recombinant human AChE; ± standard error, 25 °C, ATCh substrate, read-out: Ki AChE
  Ki: 0.075 ± 0.06 µM
[1]; 10 µM compound
  FRAP: 9.5 ± 1.9 µM
[1]; 100 µM compound
  FRAP: 82 ± 4 µM
[2]; [3]
  RM0: 2.706
  b: 4.173
[2]; [4]
  RM0: 1.151
  b: 2.214
[2]; [5]
  RM0: 3.7376
  b: 4.663
[2]; RP-18 silica, I = 90%MeOH/5%H2O/5%HCl
  RF, Methanol/Water/Hydrochloric acid (conc.), mobile phase I: 0.67
[2]; RP-18 silica, II = 80%Dioxane/15%H2O/5%HCl
  RF, Dioxane/Water/Hydrochloric acid (conc.), mobile phase II: 0.78
[2]; RP-18 silica, II = 85%MeOH/10%H2O/5%HCl
  RF, Methanol/Water/Hydrochloric acid (conc.), mobile phase II: 0.62
[2]; RP-18 silica, III = 70%AC/25%H2O/5%HCl
  RF, Acetone/Water/Hydrochloric acid (conc.), mobile phase III: 0.55
[2]; RP-18 silica, III = 70%Dioxane/25%H2O/5%HCl
  RF, Dioxane/Water/Hydrochloric acid (conc.), mobile phase III: 0.7
[2]; RP-18 silica, III = 80%MeOH/15%H2O/5%HCl
  RF, Methanol/Water/Hydrochloric acid (conc.), mobile phase III: 0.42
[2]; RP-18 silica, IV = 60%Dioxane/35%H2O/5%HCl
  RF, Dioxane/Water/Hydrochloric acid (conc.), mobile phase IV: 0.7
[2]; RP-18 silica, IV = 65%AC/30%H2O/5%HCl
  RF, Acetone/Water/Hydrochloric acid (conc.), mobile phase IV: 0.49
[2]; RP-18 silica, IV = 75%MeOH/20%H2O/5%HCl
  RF, Methanol/Water/Hydrochloric acid (conc.), mobile phase IV: 0.44
[2]; RP-18 silica, IX = 40%AC/55%H2O/5%HCl
  RF, Acetone/Water/Hydrochloric acid (conc.), mobile phase IX: 0.04
[2]; RP-18 silica, IX = 50%MeOH/45%H2O/5%HCl
  RF, Methanol/Water/Hydrochloric acid (conc.), mobile phase IX: 0.02
[2]; RP-18 silica, V = 50%Dioxane/45%H2O/5%HCl
  RF, Dioxane/Water/Hydrochloric acid (conc.), mobile phase V: 0.47
[2]; RP-18 silica, V = 60%AC/35%H2O/5%HCl
  RF, Acetone/Water/Hydrochloric acid (conc.), mobile phase V: 0.39
[2]; RP-18 silica, V = 70%MeOH/25%H2O/5%HCl
  RF, Methanol/Water/Hydrochloric acid (conc.), mobile phase V: 0.34
[2]; RP-18 silica, VI = 40%Dioxane/55%H2O/5%HCl
  RF, Dioxane/Water/Hydrochloric acid (conc.), mobile phase VI: 0.31
[2]; RP-18 silica, VI = 55%AC/40%H2O/5%HCl
  RF, Acetone/Water/Hydrochloric acid (conc.), mobile phase VI: 0.32
[2]; RP-18 silica, VI = 65%MeOH/30%H2O/5%HCl
  RF, Methanol/Water/Hydrochloric acid (conc.), mobile phase VI: 0.23
[2]; RP-18 silica, VII = 50%AC/45%H2O/5%HCl
  RF, Acetone/Water/Hydrochloric acid (conc.), mobile phase VII: 0.28
[2]; RP-18 silica, VII = 60%MeOH/35%H2O/5%HCl
  RF, Methanol/Water/Hydrochloric acid (conc.), mobile phase VII: 0.11
[2]; RP-18 silica, VIII = 45%AC/50%H2O/5%HCl
  RF, Acetone/Water/Hydrochloric acid (conc.), mobile phase VIII: 0.19
[2]; RP-18 silica, VIII = 55%MeOH/40%H2O/5%HCl
  RF, Methanol/Water/Hydrochloric acid (conc.), mobile phase VIII: 0.07
